The values that follow come from ChEMBL document CHEMBL2046394, “Isolation and characterization of α,β-unsaturated γ-lactono-hydrazides from Streptomyces sp” (J Nat Prod, 2012).

Each structure is given as a SMILES string. Calls of active or inactive are those of the source. No cut-off for these calls is given here.

Assay [1] has as its system Escherichia coli. Put plainly: Antibacterial activity against Escherichia coli ATCC 25922 by disk inhibition zone method. The assay is classed as functional, organism-based.
In assay [2] the test system is Bacillus subtilis. In words: Antibacterial activity against Bacillus subtilis ATCC 6633 by disk inhibition zone method. The assay is classed as functional, organism-based.
Assay [3] concerns Micrococcus luteus. In words: Antibacterial activity against Micrococcus luteus ATCC 10240 by disk inhibition zone method. The format is functional, organism-based.
Assay [4] can be described thus: Cytotoxicity against human MDA231 cells assessed as growth inhibition after 72 hrs. The assay is classed as functional, cell-based. Conditions: MDA-MB-231, 72 h.
In assay [5] the test system is Caco-2. In words: Cytotoxicity against human Caco2 cells by MTT assay. The format is functional, cell-based. For orientation: Tetrazolium assays rely on reduction of a dye to a coloured formazan, in cell work by metabolically active cells.

For the compound `CCCCCCN(NC(=O)CO)C(=O)CCC1=CCOC1=O`, the result in assay [1], in assay [2] and in assay [3] was inactive.

Take `O=C(O)CCC1=CCOC1=O`: the outcome in assay [1], in assay [2] and in assay [3] was inactive.

For orientation: IC50 means the concentration at which inhibition is half-maximal. For `CCCC/C=C\N(NC(C)=O)C(=O)CCC1=CCOC1=O` [GERALCIN B], the IC50 in assay [4] turned out to be 5 µM. Moreover, the outcome in assay [1], in assay [2] and in assay [3] was inactive.

Turning to `COc1cc(/C=C/C(=O)N(CCc2c[nH]c3ccc(O)cc23)N(CCc2c[nH]c3ccc(O)cc23)C(=O)/C=C/c2ccc(O)c(OC)c2)ccc1O` [MONTAMINE], half-maximal inhibition in assay [5] (IC50) was put at 43.9 µM.
